Consider six compounds from patent US8232318B2, “Approaches to treat cancer using HB-EGF inhibitors” (The General Hospital Corporation, priority 2009, dated 2012).

For series [1], the system named is EJ cells. Put plainly: Clonogenic assay of EJ cells. In kind it is cell-based, human. The following applies: for colony growth: EJ cells, 5 μM, grown for two weeks. On the procedure: Aliquots of one hundred EJ cells were plated out in petridish (60 mm size) and allowed to establish themselves. […] After exposure, the cells were grown for two weeks without changing the medium, and the number of cell colonies were counted.

For series [2] the following is noted: mouse ear inflammatory test; cited from earlier work.
Series [3] has as its target T1, HB-EGF (Homo sapiens, UniProt Q99075).
T1 construct: lyophilized HB-EGF protein (R&D Systems) was dissolved in either water or PBS buffer; purchased R&D Systems
Nature of the series: Surface Plasmon Resonance (Biacore) binding to immobilized HB-EGF. The note with it: SPR, compound 0.78 uM-50 uM, 25° C. On the procedure: A Biacore™ T100 (GE Healthcare, Uppsala, Sweden) was used to perform the Surface Plasmon Resonance (SPR) experiments. Sensor surface preparation and interaction analyses experiments were performed at 25° C. Prior to surface preparation, lyophilized HB-EGF protein (R&D Systems) was dissolved in either water or PBS buffer, at pH 7.4 and protein purity determined by Nu-Page 4-12% Bis-Tris gel in MOPS (3-(N-Morpholino)-propanesulfonic acid) buffer with a silver stain sensor preparation. HB-EGF was immobilized onto series S sensor chip CM4 via a standard N-ethyl-N′-(dimethyl-aminopropyl)carbodiimide/N-hydroxysuccinimide (EDC/NHS) amine coupling procedures. HB-EGF was diluted to 10 μg/mL in 10 mM sodium acetate pH5.5 for these procedures and resultant immobilization levels were 1000-1200 R.U.s. (R.U.: […]). Control surfaces were prepared similarly without protein derivatization and utilized as a reference surfaces for compound binding experiments. For compound interaction analyses, 0.01 M Hepes, pH7.4, 0.15 M NaCl, 0.05% Surfactant P20 and 5% DMSO was used. Compound samples were prepared by serial dilution in the range 0.78 uM-50 uM and flowed over control and derivatized surfaces for two minutes at a flow-rate of 80 μL/min. Zero concentration blank buffer cycles were included as negative control samples. […]

Series [4] has as its system human normal (non-cancerous) breast epithelial cells. Nature of the series: Toxicity in human primary normal (non-cancerous) cells. Format: cell-based. The note with it: 5 and 10 microM (Iressa 5 microM), 24-96 hours, Alamar Blue and cell death assays. Here is the method:
The cultures were subsequently stained with crystal-violet blue to evaluate the number of live cells. […] The number of dead cells was determined by Alamar Blue staining as well as Cyto-Flow-cell death assays from Promega (Madison, Wis.).

In series [5] the test system is mammary tumor. Nature of the series: Spontaneous tumor model (MMTV-PyVT transgenic mice). Format: in vivo. The note with it: 5 mg/kg daily i.p. for 28 days, vs DMSO. From the text:
Mice with a spontaneous tumor model (MMTV-PvVT (FVB/N-Tg) transgenic mice; NCI repository) develop multifocal mammary tumor (from hyperplasia to metastatic) with a high incidence of metastasis. This mouse model has been widely used for the correlation studies of human cancer (Guy et al., Moll. Cell. Biol. 12: 954-961, 1992). In addition, this mouse model has been used to evaluate the effectiveness of potential drug therapies. Generally, due to aggressiveness of tumor growth and spread in this mouse-model, only a combination of chemo-drugs is effective in tumor growth inhibition in this mouse model.
MMTV-PyVT mice were maintained until mammary tumor size reached to 6 mm, and then treated with myrsinoic acid A (NP2008) (5 mg/kg) or vehicle (DMSO) daily by i.p. for 28 days.

Series [6] relates to phospho-EGFR, phospho-Her3/ErbB3 and phospho-AKT. Put plainly: EGFR signaling in Iressa resistant SKBR3 cells by Western blot. Format: cell-based, human. The note with it: longer exposure (up to 96 hours). Here is the method:
After treatment, total cell lysates were isolated and analyzed by Western blot analysis. The cells were evaluated for the presence of phospho-EGFR, phospho-Her3/ErbB3 and phospho-AKT.
(A western blot detects proteins with antibodies after separation by electrophoresis.)

The test system of series [7] is EJ cancer cells. Put plainly: Cytotoxicity assay (sulforhodamine B) in EJ cancer cells. Format: cell-based, human. The following applies: high and low confluent density, FIG. 10 legend. On the procedure: DMSO treatment was used as a control. Cells were stained with 0.4% sulforhodamine B three days after treatment. The results are shown in FIG. 10 A (cells started with higher confluent density) and FIG. 10 B (treatment experiments performed with lower confluent density). FIG. 10 C (low confluent) and FIG. 10 D show the result of a time curve experiment wherein aliquots of cells were stained at 24, 48, 72 and 96 hours.

For series [8], the system named is EJ cells or A549 cells. Put plainly: Lung or bladder tumor xenograft in nude mice. Format: in vivo. The following applies: intraperitoneally 1 mg/kg every 48 hours for 42 days, vs control DMSO-administered mice. On the procedure: Lung or bladder tumor xenograft-bearing mice were treated with myrsinoic acid A to evaluate its in vivo anti-tumor effect. A total of 2×10^6 EJ cells or A549 cells were implanted subcutaneously on opposite site flanks in each nude/nude mice (Charles River, Mass.). There were six mice in each group. When tumor masses grew to ˜2-5 mm in diameter, myrsinoic acid A (NP2008) was administered intraperitoneally (total 1 mg/kg) every 48 hours for 42 days.

In series [9] the test system is human cancer cells including breast cancer cells, bladder cancer cells, colon cancer cells, and lung cancer cells. Put plainly: Induction of cell death/apoptosis in a panel of human cancer cells. Format: cell-based. From the text: We evaluated the ability of myrsinoic acid A (NP2008) to suppress cell growth and induce apoptosis in a panel of human cancer cells.

Series [10] deals with DNA polymerases. The note with it: cited from earlier work.
Series [11] has as its system human cancer cells including breast cancer cells, bladder cancer cells, colon cancer cells, and lung cancer cells. Put plainly: Tumor cell growth inhibition / viable cells by crystal-violet staining. Format: cell-based. From the text:
The ability to suppress the growth of cancer cells was again seen at micromolar potencies (2.5-10 microM) and was concentration dependent. […] Viable cells are shown with crystal-violet cell staining.

Series [12] relates to methioninase. The following applies: cited from earlier work.
[13] abbreviates: concentration dependent, wildtype or mutated p53 cell lines.

“Also recorded” adds a separate entry of the source.

T1 sequence (Q99075 63-148 limits assumed): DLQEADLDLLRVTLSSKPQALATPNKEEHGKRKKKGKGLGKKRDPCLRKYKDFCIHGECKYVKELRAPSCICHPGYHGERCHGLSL

As to `COc1cc2ncnc(Nc3ccc(F)c(Cl)c3)c2cc1OCCCN1CCOCC1` [Iressa, reference compound], the colony growth entry in series [1] was “did not show any colony growth”.
Consider `CC(C)=CC/C=C(\C)C1Cc2cc(C(=O)O)cc(CC=C(C)C)c2O1` (centres unmarked) [myrsinoic acid F], for which, in series [2], the anti-inflammatory activity entry is recorded as “act as anti-inflammatory compounds; also recorded: most potent anti-inflammatory compound”.
`CC(C)=CCC/C(C)=C/Cc1cc(C(=O)O)cc(CC=C(C)C)c1O` [myrsinoic acid A, 3-geranyl-4-hydroxy-5-(3′-methyl-2′butenyl)-benzoic acid]: the “binding to HB-EGF” value in [3] is “binding”. For the same compound, the colony growth result in [1] was “did not show any colony growth”. For the same compound, in [1] (clonogenic assay, FIG. 9 legend), the “suppression of growth of EJ cells compared with radiation or Iressa” value is “more effective”. Further, the “cytotoxicity in normal cells” value in series [4] was “less cytotoxicity in normal cells than Iressa; also recorded: non-toxic”. Further, the tumor mass result in [5] is “significant reduction in tumor mass”. Also, the “phospho-EGFR, phospho-HER3 and phospho-AKT on longer exposure” value in [6] is on record as “long term suppression”. In series [7], the “suppression of cancer cell proliferation compared with Iressa” value is recorded as “more potent suppressor of cancer cell proliferation than Iressa”. In series [8], the tumor growth result is given as “significant tumor-growth suppression”. In addition, the cell death entry in [9] (EJ human bladder cancer cells and HCT116 human colon cancer cells (FIG. 5)) is “induces cell death”. In series [9] (setting [13]), the “potencies at which apoptosis is induced” value was 2.5 to 10 µM. Further, the anti-inflammatory activity entry in series [2] is on record as “act as anti-inflammatory compounds”. Moreover, in [10], the DNA polymerase inhibition entry is reported as “inhibitor of some DNA polymerases”. In addition, the “number of viable cells” value in series [11] (EJ, HCT116, MDA-MD486 and A549 cells, crystal-violet staining (FIG. 6)) was “decrease in the number viable cells”. Moreover, the “potencies at which growth of cancer cells is suppressed” value in series [11] (setting [13]) was in the range of 2.5 to 10 µM.
On to `CC(C)=CCC/C(C)=C/Cc1cc(C(=O)O)cc(C/C=C(\C)CCC=C(C)C)c1O` [myrsinoic acid E], for which, in series [2], the anti-inflammatory activity result is “act as anti-inflammatory compounds”.
For `CC(C)=CCCC(C)(O)C1Cc2cc(C(=O)O)cc(CC=C(C)C)c2O1` (centres unmarked) [myrsinoic acid B], the methioninase inhibition result in series [12] was “methioninase inhibitor”. Also, the anti-inflammatory activity result in series [2] is “act as anti-inflammatory compounds”.
Take `CC(C)=CCC[C@]1(C)Oc2c(CC=C(C)C)cc(C(=O)O)cc2C[C@@H]1O` [myrsinoic acid C]: the anti-inflammatory activity entry in series [2] is on record as “act as anti-inflammatory compounds”.
